In PMC9788418, “Design, Synthesis and Biological Evaluation of Syn and Anti-like Double Warhead Quinolinones Bearing Dihydroxy Naphthalene Moiety as Epidermal Growth Factor Receptor Inhibitors with Potential Apoptotic Antiproliferative Action” (Molecules, 2022):
Values joined by “and” are separate entries in the source; they are usually repeats but may differ in a detail not shown here. Identical values can stand only once.

Assays:
Type in all cases: cell-based, human
[1] = tested on: four tested cancer cell lines (A-549, MCF-7, Panc-1, HT-29); experiment: Antiproliferative assay, average over the four cell lines; conditions: for GI50: Homo sapiens, mean of the four cancer cell lines
Procedure: The newly synthesized compounds were tested for antiproliferative activity against four different types of cancer cells: A-549 (epithelial cancer cell line), MCF-7 (breast cancer cell line), Panc-1 (pancreas cancer cell line), and HT-29 (colon cancer cell line).
After 24 h, medium was removed from the plates and the compounds in (in 0.1% DMSO) were added (in 200 μL medium to yield a final concentration of 0.1% v/v) to the wells of plates. A single compound was designated with four wells followed by incubation of plates for 96h at 37°C. After incubation, medium was removed completely from the plates followed by addition of MTT (0.4 mg/mL in medium) to each well and subsequent incubation of plates for 3h. MTT (along with the medium) was removed and DMSO (150μL) was added to each well of the culture plates, followed by vortexing and subsequent measurement of absorbance (at 540 nm) using microplate reader. The data are shown as percentage inhibition of proliferation in comparison with controls containing 0.1% 4.2.1.2. Assay for antiproliferative effect
To explore the antiproliferative potential of compounds MTT assay was performed according to previously reported procedure using different cell lines to explore the antiproliferative potential of compounds propidium iodide fluorescence assay was performed using different cell lines. To calculate the total nuclear DNA, a fluorescent dye (propidium iodide, PI) is used which can attach to the DNA, thus offering a quick and precise technique. PI cannot pass through the cell membrane and its signal intensity can be considered as directly proportional to quantity of cellular DNA. Cells whose cell membranes are damaged or have changed permeability are counted as dead ones. The assay was performed by seeding the cells of different cell lines at a density of 3000-7500 cells/well (in 200µl medium) in culture plates followed by incubation for 24h at 37 °C in humidified 5% CO2/95% air atmospheric conditions. The medium was removed; the compounds were added to the plates at 10 µM concentrations (in 0.1% DMSO) in triplicates, followed by incubation for 48 h. DMSO (0.1%) was used as control. After incubation, medium was removed followed by the addition of PI (25 µl, 50µg/mL in water/medium) to each well of the plates. At -80 °C, the plates were allowed to freeze for 24 h, followed by thawing at 25 °C. A fluorometer (Polar-Star BMG Tech) was used to record the readings at excitation and emission wavelengths of 530 and 620 nm for each well. The percentage cytotoxicity of compounds was calculated using the following formula:
Where ATC= Absorbance of treated cells and AC= Absorbance of control. Erlotinib was used as positive control in the assay.

[2] = Cell viability assay (MTT) on normal cell line; conditions: human, MCF-10A mammary gland epithelial cells, four days
Procedure: A cell viability test was performed using MCF-10A (human mammary gland epithelial) cell line to investigate the effect of 4a–e and 7a–e on normal cell lines. In this investigation, a concentration of 50 µM of the studied compound is employed for four days, after which cell viability is assessed.
4.2. Biological evaluation
4.2.1. Cytotoxic activity using MTT Assay and evaluation of IC50
MTT assay was carried out to study the effect of compounds on mammary epithelial cells (MCF-10A). The medium in which cells were propagated contained Dulbecco's modified Eagle's medium (DMEM)/ Ham's F-12 medium (1:1) supplemented with epidermal growth factor (20 ng/mL), hydrocortisone (500 ng/mL), insulin (10 μg/mL), 2 mM glutamine and 10% foetal calf serum. After every 2-3 days, the cells were passaged using trypsin ethylenediamine tetra acetic acid (EDTA). The cells were seeded at a density of 10^4 cells mL-1 in flat-bottomed culture plates containing 96 wells each. After 24 h, medium was removed from the plates and the compounds in (in 0.1% DMSO) were added (in 200 μL medium to yield a final concentration of 0.1% v/v) to the wells of plates. A single compound was designated with four wells followed by incubation of plates for 96h at 37°C. After incubation, medium was removed completely from the plates followed by addition of MTT (0.4 mg/mL in medium) to each well and subsequent incubation of plates for 3h. MTT (along with the medium) was removed and DMSO (150μL) was added to each well of the culture plates, followed by vortexing and subsequent measurement of absorbance (at 540 nm) using microplate reader. […]

[3] = tested on: caspase-9; experiment: Caspase-9 level assay; conditions: for Caspase-9 Fold Change: vs control cells
Procedure: The impact of compounds 4a and 4b on caspase-8 and caspase-9 was also assessed to clarify how compounds 4a and 4b induce apoptosis by activating the intrinsic or extrinsic route.

## O=c1cc(-n2cc(COc3cccc4cccc(OCc5cn(-c6cc(=O)[nH]c7ccccc67)nn5)c34)nn2)c2ccccc2[nH]1 [Compound 4a, 4,4′-(((naphthalene-1,8-diylbis(oxy))bis(methylene))bis(1H-1,2,3-triazole-4,1-diyl))-bis-(quinolin-2(1H)-one)]
[1]
  GI50: 34 nM
[2]
  viability at 96 h, 50 µM: 91%
[3]
  Caspase-9 Conc: 17.80 ng/mL
  Caspase-9 Fold Change: 19 and 18.75

## Cc1ccc2[nH]c(=O)cc(-n3cc(COc4cccc5cccc(OCc6cn(-c7cc(=O)[nH]c8ccc(C)cc78)nn6)c45)nn3)c2c1 [Compound 4b, 4,4′-(((naphthalene-1,8-diylbis(oxy))bis(methylene))bis(1H-1,2,3-triazole-4,1-diyl))-bis(6-methylquinolin-2(1H)-one)]
[1]
  GI50: 45 nM
[1]; relative to 4c
  fold more potent than 4c (GI50): 1.8 fold
[1]; relative to erlotinib
  fold less potent than erlotinib (GI50): 1.4 fold
[2]
  viability at 96 h, 50 µM: 89%
[3]
  Caspase-9 Conc: 16.60 ng/mL
  Caspase-9 Fold Change: 18 and 17.50
